Experimental data published in PubChem BioAssay AID328 (DTP/NCI, 2004).
“And” between values parts separate entries of the source, which are not always exact repeats. Identical values can stand only once. Inconclusive results and toxic doses are left out. The calls were made as follows: active = survival T/C of 150% or more; inactive = T/C below 125% in these data.

System: BDF1 mice, P388 leukemia ip, median survival T/C
Test: NCI In Vivo Anticancer Drug Screen. Data for tumor model P388 Leukemia (intraperitoneal) in B6D2F1 (BDF1) mice
Settings: endpoint: median survival time, higher = longer survival
Method in brief: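 Mice carrying the transplantable tumour receive compound or vehicle. Survival is followed in each arm, and the treated measure is divided by the vehicle measure.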

[1] = dose: 12.5 mg/kg/injection, schedule: Q01DX005 (ip), vehicle: Klucel (hydroxypropylcellulose) (HPC)
[2] = dose: 25.0 mg/kg/injection, schedule: Q01DX005 (ip), vehicle: Klucel (hydroxypropylcellulose) (HPC)
[3] = dose: 50.0 mg/kg/injection, schedule: Q01DX005 (ip), vehicle: Klucel (hydroxypropylcellulose) (HPC)
[4] = dose: 50.0 mg/kg/injection, schedule: Q01DX009 (ip), vehicle: Klucel (hydroxypropylcellulose) (HPC)
[5] = dose: 100.0 mg/kg/injection, schedule: Q01DX005 (ip), vehicle: Klucel (hydroxypropylcellulose) (HPC)
[6] = dose: 50.0 mg/kg/injection, schedule: Q01DX009 (ip), vehicle: saline with Tween-80
[7] = dose: 100.0 mg/kg/injection, schedule: Q01DX009 (ip), vehicle: saline with Tween-80
[8] = dose: 100.0 mg/kg/injection, schedule: Q04DX003 (ip), vehicle: saline with Tween-80
[9] = dose: 200.0 mg/kg/injection, schedule: Q04DX003 (ip), vehicle: saline with Tween-80
[10] = dose: 400.0 mg/kg/injection, schedule: Q04DX003 (ip), vehicle: saline with Tween-80
[11] = dose: 50.0 mg/kg/injection, schedule: Q04DX003 (ip), vehicle: saline with Tween-80
[12] = dose: 200.0 mg/kg/injection, schedule: Q01DX009 (ip), vehicle: saline with Tween-80

Measured: T/C

CO[C@H]1/C=C/O[C@@]2(C)Oc3c(C)c(O)c4c(O)c(c(/C=N/N5C(C)CN(Cc6ccccc6)CC5C)c(O)c4c3C2=O)NC(=O)/C(C)=C\C=C\[C@H](C)[C@H](O)[C@@H](C)[C@@H](O)[C@@H](C)[C@H](OC(C)=O)[C@@H]1C (some centres not stated)
inactive: [1] 94 % of control | dose: 12.5 mg/kg/injection, schedule: Q01DX005 (ip), vehicle: other 97 % of control | dose: 12.5 mg/kg/injection, schedule: Q01DX005 (oral), vehicle: other 103 % of control | dose: 12.5 mg/kg/injection, schedule: Q02DX Z (oral), vehicle: Klucel (hydroxypropylcellulose) (HPC) 89 % of control | [2] 97 % of control | dose: 25.0 mg/kg/injection, schedule: Q01DX005 (ip), vehicle: other 106 % of control | dose: 25.0 mg/kg/injection, schedule: Q01DX005 (oral), vehicle: Klucel (hydroxypropylcellulose) (HPC) 104 % of control | dose: 25.0 mg/kg/injection, schedule: Q01DX005 (oral), vehicle: other 103 % of control | dose: 25.0 mg/kg/injection, schedule: Q02DX Z (ip), vehicle: Klucel (hydroxypropylcellulose) (HPC) 105 % of control | [3] 94 % of control | dose: 50.0 mg/kg/injection, schedule: Q01DX005 (ip), vehicle: other 103 % of control | dose: 50.0 mg/kg/injection, schedule: Q01DX005 (oral), vehicle: Klucel (hydroxypropylcellulose) (HPC) 104 % of control | dose: 50.0 mg/kg/injection, schedule: Q01DX005 (oral), vehicle: other 104 % of control | [4] 90 % of control | dose: 50.0 mg/kg/injection, schedule: Q02DX Z (ip), vehicle: Klucel (hydroxypropylcellulose) (HPC) 105 % of control | dose: 50.0 mg/kg/injection, schedule: Q02DX Z (oral), vehicle: Klucel (hydroxypropylcellulose) (HPC) 99 % of control | [5] 100 % of control | dose: 100.0 mg/kg/injection, schedule: Q01DX005 (ip), vehicle: other 106 % of control | dose: 100.0 mg/kg/injection, schedule: Q01DX005 (oral), vehicle: Klucel (hydroxypropylcellulose) (HPC) 105 % of control | dose: 100.0 mg/kg/injection, schedule: Q01DX005 (oral), vehicle: other 114 % of control | dose: 100.0 mg/kg/injection, schedule: Q01DX009 (ip), vehicle: Klucel (hydroxypropylcellulose) (HPC) 100 % of control | dose: 100.0 mg/kg/injection, schedule: Q02DX Z (ip), vehicle: Klucel (hydroxypropylcellulose) (HPC) 110 % of control | dose: 100.0 mg/kg/injection, schedule: Q02DX Z (oral), vehicle: Klucel (hydroxypropylcellulose) (HPC) 100 % of control | dose: 200.0 mg/kg/injection, schedule: Q01DX005 (ip), vehicle: Klucel (hydroxypropylcellulose) (HPC) 86 % of control | dose: 200.0 mg/kg/injection, schedule: Q01DX005 (ip), vehicle: other 112 % of control | dose: 200.0 mg/kg/injection, schedule: Q01DX005 (oral), vehicle: Klucel (hydroxypropylcellulose) (HPC) 105 % of control | dose: 200.0 mg/kg/injection, schedule: Q01DX009 (ip), vehicle: Klucel (hydroxypropylcellulose) (HPC) 100 % of control | dose: 200.0 mg/kg/injection, schedule: Q02DX Z (ip), vehicle: Klucel (hydroxypropylcellulose) (HPC) 110 % of control | dose: 200.0 mg/kg/injection, schedule: Q02DX Z (oral), vehicle: Klucel (hydroxypropylcellulose) (HPC) 89 % of control | dose: 400.0 mg/kg/injection, schedule: Q01DX005 (ip), vehicle: Klucel (hydroxypropylcellulose) (HPC) 97 % of control | dose: 400.0 mg/kg/injection, schedule: Q01DX005 (oral), vehicle: Klucel (hydroxypropylcellulose) (HPC) 106 % of control | dose: 400.0 mg/kg/injection, schedule: Q02DX Z (ip), vehicle: Klucel (hydroxypropylcellulose) (HPC) 116 % of control | dose: 400.0 mg/kg/injection, schedule: Q02DX Z (oral), vehicle: Klucel (hydroxypropylcellulose) (HPC) 91 % of control | dose: 800.0 mg/kg/injection, schedule: Q01DX005 (oral), vehicle: Klucel (hydroxypropylcellulose) (HPC) 104 % of control | dose: 800.0 mg/kg/injection, schedule: Q02DX Z (ip), vehicle: Klucel (hydroxypropylcellulose) (HPC) 110 % of control | dose: 1600.0 mg/kg/injection, schedule: Q01DX005 (oral), vehicle: Klucel (hydroxypropylcellulose) (HPC) 110 % of control | dose: 1600.0 mg/kg/injection, schedule: Q02DX Z (ip), vehicle: Klucel (hydroxypropylcellulose) (HPC) 109 % of control

CC(=O)[C@H]1CC[C@H]2[C@@H]3CCC4=CC(=O)[C@H](C)C[C@]4(C)[C@@]3(F)[C@@H](O)C[C@]12C
inactive: dose: 25.0 mg/kg/injection, schedule: Q01DX009 (ip), vehicle: saline with Tween-80 100 % of control | [6] 100 % of control | [7] 95 % of control and 104 % of control | [8] 100 % of control | [9] 100 % of control | [10] 90 % of control

Cc1ccc(-c2nc3sccn3c2/C=N/NS(=O)(=O)c2ccc(C)cc2)cc1
inactive: dose: 100.0 mg/kg/injection, schedule: Q01DX001 (ip), vehicle: Klucel (hydroxypropylcellulose) (HPC) 101 % of control | dose: 200.0 mg/kg/injection, schedule: Q01DX001 (ip), vehicle: Klucel (hydroxypropylcellulose) (HPC) 101 % of control | dose: 400.0 mg/kg/injection, schedule: Q01DX001 (ip), vehicle: Klucel (hydroxypropylcellulose) (HPC) 101 % of control

c1cc(CC2CO2)c2c(c1CC1CO1)OCCOCCOCCOCCO2 (configuration not stated)
inactive: dose: 15.0 mg/kg/injection, schedule: Q01DX009 (ip), vehicle: saline + alcohol 100 % of control | dose: 30.0 mg/kg/injection, schedule: Q01DX009 (ip), vehicle: saline + alcohol 106 % of control | dose: 60.0 mg/kg/injection, schedule: Q01DX009 (ip), vehicle: saline + alcohol 109 % of control | dose: 120.0 mg/kg/injection, schedule: Q01DX009 (ip), vehicle: saline + alcohol 111 % of control

CCC/C(=N\Nc1ccc([N+](=O)[O-])cc1[N+](=O)[O-])c1ccccc1
inactive: dose: 25.0 mg/kg/injection, schedule: Q04DX003 (ip), vehicle: saline with Tween-80 90 % of control | [11] 100 % of control | [8] 109 % of control

O=C(Nc1cccc(C2=NCCN2)c1)c1ccc(C(=O)Nc2cccc(C3=NCCN3)c2)c(Cl)c1
inactive: dose: 1.0 mg/kg/injection, schedule: Q01DX010 (ip), vehicle: water 100 % of control | dose: 2.0 mg/kg/injection, schedule: Q01DX010 (ip), vehicle: water 100 % of control | dose: 4.0 mg/kg/injection, schedule: Q01DX010 (ip), vehicle: water 100 % of control

CCCCNC(C)(C)C(SSS(=O)(=O)O)c1ccc(Cl)cc1 (configuration not stated)
inactive: [8] 100 % of control | [9] 100 % of control | [10] 116 % of control

CCCCN(CCCC)CC(O)c1cc(Cl)cc2cccnc12 (configuration not stated)
inactive: dose: 3.12 mg/kg/injection, schedule: Q01DX009 (ip), vehicle: saline with Tween-80 100 % of control | dose: 6.25 mg/kg/injection, schedule: Q01DX009 (ip), vehicle: saline with Tween-80 104 % of control | dose: 12.5 mg/kg/injection, schedule: Q01DX009 (ip), vehicle: saline with Tween-80 108 % of control | dose: 25.0 mg/kg/injection, schedule: Q01DX009 (ip), vehicle: Klucel (hydroxypropylcellulose) (HPC) 87 % of control and 92 % of control | dose: 25.0 mg/kg/injection, schedule: Q04DX003 (ip), vehicle: Klucel (hydroxypropylcellulose) (HPC) 108 % of control | [4] 100 % of control and 108 % of control | dose: 50.0 mg/kg/injection, schedule: Q04DX003 (ip), vehicle: Klucel (hydroxypropylcellulose) (HPC) 100 % of control

Cc1cc(N2CCCCC2)nc(N2CCCCC2)c1C#N
inactive: dose: 50.0 mg/kg/injection, schedule: Q01DX005 (ip), vehicle: saline with Tween-80 86 % of control | dose: 100.0 mg/kg/injection, schedule: Q01DX005 (ip), vehicle: saline with Tween-80 86 % of control | dose: 200.0 mg/kg/injection, schedule: Q01DX005 (ip), vehicle: saline with Tween-80 96 % of control

O=[N+]([O-])c1ccc(-n2[nH]nnc2=S)cc1
inactive: [11] 107 % of control | [8] 104 % of control | [10] 95 % of control

CN(C)c1ccc(/C=C/c2ccnc3cc(Cl)ccc23)cc1
inactive: [6] 118 % of control | [7] 100 % of control | [12] 93 % of control

Cn1c(=O)c2c(c3ccccc31)Oc1oc3ccc4ccccc4c3c(=O)c1C2
inactive: [6] 91 % of control | [12] 94 % of control

CN=C(NCCCOC)c1ccc(NC(=O)Nc2ccc(NC(=O)Nc3ccc(C(=NC)NCCCOC)cc3)cc2)cc1
inactive: dose: 6.25 mg/kg/injection, schedule: Q01DX005 (ip), vehicle: Klucel (hydroxypropylcellulose) (HPC) 104 % of control | [1] 108 % of control | [2] 115 % of control | [3] 121 % of control | [5] 107 % of control
